Data taken from patent publication US7192977B2, “Benz-indole and benzo-quinoline derivatives as prodrugs for tumor treatment” (School of Pharmacy, priority 2001, dated 2007).
Marks after values point to notes of the source that are not given here.

Tested on: Chinese Hamster Ovary (CHO) cell
Experiment: MTT cytotoxicity in CHO cells of the test compound with and without activation by NADPH-supplemented rat liver microsomes
Format: cell-based
Conditions: for IC50: Cricetulus griseus, CHO, cells exposed 24 hours, MTT, mean+sd for three experiments
Description: Test compound activation by CYP enzymes was carried out using NADPH supplemented rat liver microsomes. Incubation mixtures comprised microsomal protein (1 mg/ml), reduced-nicotinamide adenine dinucleotide phosphate (NADPH, 10 mM) and phosphate buffer (pH7.4, 100 mM). Test compound (0.01–100 μM final concentration) in DMSO (20 μl) was added to the microsomal incubation mixtures (0.5 ml) and incubated for 60 min at 37 C. Control incubates contained test compound and microsomal incubation mixture terminated at 0 time. All incubations were terminated by addition of an equal volume of ice-cold acetonitrile and microfuged for 3 min. Aliquots of the supernatant were added to cells in culture and cytotoxicity determined as described below.
Chinese Hamster Ovary (CHO) cell were grown in MEM supplemented with 10% dialysed FBS and G418 (400 μg/ml). All cells were seeded at an initial density of 1000 cells/well in 96-well-plates, incubation at 37° C. for 24 hours. Aliquots (0.1 ml) of the test compound/microsomal/acetonitrile supernatnant was then added to the CHO cells. Cells were then incubated for 24 hours at 37° C., 5% CO2. After this time period MTT (50 μl; 2 mg/ml stock solution) was added to each well and cells were incubated for a further 4 hours. During this time period MTT, a hydrogen acceptor tetrazolium salt, is reduced to formazan dye by mitochondrial dehydrogenase of viable cells. The media was aspirated from cells and DMSO (100 μl/well) added to solubilise the coloured formazan dye. Absorbance of the formazan dye in the 96-well-plates was then determined at 550 nm. The effect of microsomal activation by the test compound on the arrest of CHO cell growth could be determined by comparing the IC50 (concentration that inhibited cell growth by 50%) with and without microsomal incubation.

SMILES: COc1ccc2[nH]c(C(=O)N3CC(CCl)c4c3ccc3ccccc43)cc2c1 (stereo not drawn) [Compound 1.8, 1-(Chloromethyl)-3-[(5-methoxyindol-2-yl)carbonyl]-1,2-dihydro-3H-benz[e]indole]
- IC50 (control incubate terminated at 0 time (no microsomal activation)): 1500 ± 530 nM
- IC50 (supernatant after 60 min incubation with NADPH fortified rat liver microsomes): 100 nM
- AF (activity factor, ratio of IC50 cytotoxicity values) (ratio of CHO IC50 without and with microsomal activation): 15.0*
